Where no end group is shown, it is not given here.
Columns and labels:
p38 = p38 activity in HEK293T cells; type: cell-based, human
Protocol: HEK 293T cells were stably transfected with wild-type TRAF2, a dominant-negative TRAF2 (ΔTRAF2) or an empty vector. TNF70-80 (10 μM) was added and the cells were incubated for 5 min. at 37° C., lysed and p38 immunoprecipitated. Kinase activity was assayed using myelin basic protein as a substrate. The data (representative digital radiogram and profile of phosphorylated MBP) shown are representative of 2 experiments.
HEK 293T cells were obtained from the American Type Culture Collection and maintained in DMEM, supplemented with 10% fetal calf serum. Cells, stably transfected with pRK5-TRAF2-FLAG, pRK5-TRAF287-501-FLAG (Dr. V. Dixit, Genentech Inc., South San Francisco) or an empty plasmid using LipofectAMINE 2000, were obtained from Dr P Xia, Hanson Institute, Adelaide, Australia) (Xia, P., Wang, L., Moretti, P. A., Albanese, N., Chai, F., Pitson, S. M., D'Andrea, R. J., Gamble, J. R., and Vadas, M. A. (2002) J. Biol. Chem. 277: 7996-8003).
Lysates containing equal amounts of protein (0.5-1 mg) were precleared with protein A sepharose (4° C.) before being incubated with anti-KHS, anti-p38, anti-ASK-1 or anti-ERK2 antibody (3 μg/sample). After mixing for 2 h (4° C.), the immune complexes were precipitated by the addition of protein A sepharose. The immunoprecipitates were collected by centrifugation (16,000 g×15s) and washed once with buffer A (4° C.), once with buffer B (10 mM Tris/HCl, pH 7.6, 100 mM NaCl, 1 mM EDTA and 100 μM […] and once with assay buffer (Hii, C. S., Huang, Z. H., Bilney, A., Costabile, M., Murray, A. W., Rathjen, D. A., Der, C. J., and Ferrante, A. (1998) J. Biol. Chem. 273: 19277-19282).
KHS (hereon referred to as “GCKR”) activity was assayed as described previously using myelin basic protein as a substrate (Shi, C. S., Leonardi, A., Kyriakis, J., Siebenlist, U., and Kerhl, J. H. (1999) J. Immunol. 163: 3279-3285). ASK-1 activation was determined in immunoprecipitates of ASK-1 by autophosphorylation (Kyriakis, J. M., and Auruch, J. (2001) Physiol. Rev. 81: 807-869). p38 and ERK activities were determined as described using myelin basic protein as a substrate (Hii, C. S., Huang, Z. H., Bilney, A., Costabile, M., Murray, A. W., Rathjen, D. A., Der, C. J., and Ferrante, A. (1998) J. Biol. Chem. 273: 19277-19282). […] A solid phase assay using glutathione-S-transferase (GST)-conjugated-jun (1-79) was employed to assay JNK activity (Hii, C. S., Huang, Z. H., Bilney, A., Costabile, M., Murray, A. W., Rathjen, D. A., Der, C. J., and Ferrante, A. (1998) J. Biol. Chem. 273: 19277-19282). Phosphorylated ASK-1, myelin basic protein and GST-jun (1-79) were fractionated on 8, 16 and 12% SDS polyacrylamide gels, respectively, and the bands were detected and radioactivity determined using an Instant Imager (Packard Instruments, Canberra, Australia). […]

ERK1/ERK2 = ERK1/ERK2 dual phosphorylation in HUVEC (western blot); type: cell-based, human; settings: 15 min; TNF 100 U/ml, TNF70-80 10 μM
Protocol: The level of myelin basic protein phosphorylation was quantitated by an Instant Imager.
Western blot analysis was conducted as described previously (Hii, C. S., Huang, Z. H., Bilney, A., Costabile, M., Murray, A. W., Rathjen, D. A., Der, C. J., and Ferrante, A. (1998) J. Biol. Chem. 273: 19277-19282). Briefly, equal amounts of denatured protein from each lysate were separated by 12% SDS polyacrylamide gel electrophoresis (PAGE). The proteins were electrophoretically transferred to nitrocellulose membranes (Schleicher and Schuell, Keene, N. H., USA)(3 h at 40V). […] Immune complexes were visualised by enhanced chemiluminescence (Hii, C. S., Huang, Z. H., Bilney, A., Costabile, M., Murray, A. W., Rathjen, D. A., Der, C. J., and Ferrante, A. (1998) J. Biol. Chem. 273: 19277-19282).

## PSTHVLITHTI-OH [TNF70-80]
p38
  activity of p38 in HEK293T cells: able to stimulate the activity of p38
p38; TNF70-80 10 μM, 5 min
  p38 activation in HEK293T cells expressing dominant-negative ΔTRAF2: substantial attenuation of this response
  p38 activation in HEK293T cells over expressing TRAF2 compared to empty plasmid: enhanced the activation of p38 by TNF70-80
p38; treatment for 5 min, p<0.05, n=3
  increase of p38 activity over control in HEK293T cells: 243+27 % over control
ERK1/ERK2
  dual phosphorylation of the ERKs in HUVEC: caused only negligible phosphorylation of the ERKs
